Assay [1] has as its target Maternal embryonic leucine zipper kinase (Homo sapiens) (UniProt Q14680). In words: Selectivity interaction (Upstate Kinase Profiler service (Millipore)) EUB0000056c MELK. As to conditions: at 1 µM.
Assay [2] deals with Mitogen-activated protein kinase 6 (Homo sapiens) (UniProt Q16659). Particulars: at 10 µM.
Assay [3] has as its target 5'-AMP-activated protein kinase catalytic subunit alpha-1 (Homo sapiens, UniProt Q13131). Put plainly: Selectivity interaction (KinomeScan (DiscoverX)) EUB0001079a PRKAA1. As to conditions: at 1 µM.
For assay [4], the target named is Ribosomal protein S6 kinase alpha-4 (Homo sapiens) (UniProt O75676). Put plainly: Selectivity interaction (KinomeScan (DiscoverX)) EUB0001079a RPS6KA4. As to conditions: at 1 µM.
Chain of Ribosomal protein S6 kinase alpha-4 (Homo sapiens) (O75676 whole entry, looked up): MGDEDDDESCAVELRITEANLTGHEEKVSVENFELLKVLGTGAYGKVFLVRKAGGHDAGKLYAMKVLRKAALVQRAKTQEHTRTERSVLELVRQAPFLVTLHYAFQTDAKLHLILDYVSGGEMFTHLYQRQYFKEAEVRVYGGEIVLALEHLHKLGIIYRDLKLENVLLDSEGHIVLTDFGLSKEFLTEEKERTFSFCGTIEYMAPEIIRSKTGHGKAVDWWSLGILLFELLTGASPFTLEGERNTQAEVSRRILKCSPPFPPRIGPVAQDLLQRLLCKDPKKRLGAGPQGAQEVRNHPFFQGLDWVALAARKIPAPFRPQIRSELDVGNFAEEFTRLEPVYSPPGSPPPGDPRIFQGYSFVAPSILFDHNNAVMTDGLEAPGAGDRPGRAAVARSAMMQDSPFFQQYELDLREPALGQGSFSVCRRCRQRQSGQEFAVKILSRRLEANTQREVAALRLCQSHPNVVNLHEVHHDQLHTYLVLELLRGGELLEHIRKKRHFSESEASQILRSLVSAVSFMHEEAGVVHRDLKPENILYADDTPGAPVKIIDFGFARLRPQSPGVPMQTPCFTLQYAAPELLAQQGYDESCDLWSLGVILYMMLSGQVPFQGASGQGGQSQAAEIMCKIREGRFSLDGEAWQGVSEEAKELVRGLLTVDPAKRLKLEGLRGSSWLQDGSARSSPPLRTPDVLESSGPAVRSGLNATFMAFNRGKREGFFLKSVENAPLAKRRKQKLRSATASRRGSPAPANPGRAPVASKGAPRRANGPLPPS
Assay [5] concerns the target Ribosomal protein S6 kinase alpha-5 (Homo sapiens) (UniProt O75582). Put plainly: Selectivity interaction (KinomeScan (DiscoverX)) EUB0001049a RPS6KA5. Particulars: at 1 µM.
The target in assay [6] is T1, Serine/threonine-protein kinase Sgk2 (Homo sapiens) (UniProt Q9HBY8).
T1 sequence (whole entry): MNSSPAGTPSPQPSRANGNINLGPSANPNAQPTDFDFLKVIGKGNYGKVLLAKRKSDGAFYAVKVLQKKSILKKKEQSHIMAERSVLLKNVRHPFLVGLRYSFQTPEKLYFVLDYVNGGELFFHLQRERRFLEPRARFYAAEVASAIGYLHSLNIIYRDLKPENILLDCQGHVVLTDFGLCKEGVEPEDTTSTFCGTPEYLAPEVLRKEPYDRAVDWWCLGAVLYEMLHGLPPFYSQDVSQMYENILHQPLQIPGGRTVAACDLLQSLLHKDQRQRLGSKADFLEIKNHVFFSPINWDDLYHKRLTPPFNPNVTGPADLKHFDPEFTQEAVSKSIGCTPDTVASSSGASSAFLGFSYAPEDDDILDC
In words: Selectivity interaction (KinomeScan (DiscoverX)) EUB0001049a SGK2. Particulars: at 1 µM.

In assay [7] the target is Protein-tyrosine kinase 2-beta (Homo sapiens) (UniProt Q14289). In words: Selectivity interaction (KinomeScan (DiscoverX)) EUB0000655a PTK2B. Particulars: at 10 µM.
Chain of Protein-tyrosine kinase 2-beta (Homo sapiens) (Q14289 whole entry, looked up): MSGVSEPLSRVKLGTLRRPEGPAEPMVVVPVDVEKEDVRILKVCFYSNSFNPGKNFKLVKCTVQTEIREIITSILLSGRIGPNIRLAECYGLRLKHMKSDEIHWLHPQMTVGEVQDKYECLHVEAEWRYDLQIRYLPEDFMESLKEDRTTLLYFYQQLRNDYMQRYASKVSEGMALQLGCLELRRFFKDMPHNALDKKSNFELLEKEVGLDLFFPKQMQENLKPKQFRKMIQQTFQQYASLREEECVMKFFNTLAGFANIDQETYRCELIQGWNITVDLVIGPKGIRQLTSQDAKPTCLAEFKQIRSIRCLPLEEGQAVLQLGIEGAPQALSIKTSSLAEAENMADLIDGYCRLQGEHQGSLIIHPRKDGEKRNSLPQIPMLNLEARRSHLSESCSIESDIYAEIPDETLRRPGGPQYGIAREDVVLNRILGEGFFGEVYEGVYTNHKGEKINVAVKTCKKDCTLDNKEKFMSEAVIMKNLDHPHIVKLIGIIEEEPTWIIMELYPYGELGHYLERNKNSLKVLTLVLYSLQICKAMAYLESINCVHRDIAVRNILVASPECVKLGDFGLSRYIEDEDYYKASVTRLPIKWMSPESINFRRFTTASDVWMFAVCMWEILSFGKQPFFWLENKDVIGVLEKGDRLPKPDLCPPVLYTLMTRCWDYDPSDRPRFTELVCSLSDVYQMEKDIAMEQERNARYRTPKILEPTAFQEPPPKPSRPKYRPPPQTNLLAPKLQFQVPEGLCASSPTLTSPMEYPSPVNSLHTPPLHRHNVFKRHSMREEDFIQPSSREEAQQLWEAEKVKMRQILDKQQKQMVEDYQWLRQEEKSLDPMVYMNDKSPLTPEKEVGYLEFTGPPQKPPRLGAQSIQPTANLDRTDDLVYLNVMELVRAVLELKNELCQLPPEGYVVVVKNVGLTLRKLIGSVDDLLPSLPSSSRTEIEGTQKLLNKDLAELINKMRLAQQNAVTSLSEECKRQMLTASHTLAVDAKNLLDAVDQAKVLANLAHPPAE
Assay [8] concerns the target Glutamate receptor ionotropic, NMDA 1 (Homo sapiens) (UniProt Q05586). Put plainly: Selectivity interaction (Panel of non-epigenetic targets (kinases, GPCRs, ion channels, and transporters, Eurofins) ) EUB0000271b GRIN1. Particulars: at 1 µM.
Assay [9] addresses T2, Aurora kinase C (Homo sapiens) (UniProt Q9UQB9).
T2 sequence (whole entry): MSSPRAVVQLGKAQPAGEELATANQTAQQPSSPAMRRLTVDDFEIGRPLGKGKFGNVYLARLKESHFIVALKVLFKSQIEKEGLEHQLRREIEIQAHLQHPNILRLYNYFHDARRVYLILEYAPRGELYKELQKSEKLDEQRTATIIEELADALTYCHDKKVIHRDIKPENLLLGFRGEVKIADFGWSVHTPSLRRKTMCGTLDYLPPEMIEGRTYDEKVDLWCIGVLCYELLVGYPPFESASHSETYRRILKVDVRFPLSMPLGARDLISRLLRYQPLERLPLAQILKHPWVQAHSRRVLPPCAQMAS
Put plainly: Selectivity interaction (KinomeScan (DiscoverX)) EUB0000666a AURKC. Particulars: at 10 µM.

For assay [10], the target named is T3, Tyrosine-protein kinase TXK (Homo sapiens) (UniProt P42681).
T3 sequence (whole entry): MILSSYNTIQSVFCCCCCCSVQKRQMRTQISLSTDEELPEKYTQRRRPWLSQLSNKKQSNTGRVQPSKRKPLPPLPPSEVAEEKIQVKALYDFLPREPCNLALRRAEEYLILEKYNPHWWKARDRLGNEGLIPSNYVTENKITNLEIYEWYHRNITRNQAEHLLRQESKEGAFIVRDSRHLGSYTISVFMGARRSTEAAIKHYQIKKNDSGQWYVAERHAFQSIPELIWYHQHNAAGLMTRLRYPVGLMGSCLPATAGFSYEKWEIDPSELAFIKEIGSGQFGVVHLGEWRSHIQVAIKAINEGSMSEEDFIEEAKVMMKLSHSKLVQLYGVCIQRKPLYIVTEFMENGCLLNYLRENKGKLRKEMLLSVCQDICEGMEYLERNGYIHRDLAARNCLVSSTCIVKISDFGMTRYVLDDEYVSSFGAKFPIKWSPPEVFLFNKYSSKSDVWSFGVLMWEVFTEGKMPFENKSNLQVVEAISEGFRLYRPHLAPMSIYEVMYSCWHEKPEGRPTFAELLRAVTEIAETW
In words: Selectivity interaction (Kinase panel (Invitrogen)) EUB0000639a TXK. As to conditions: at 200 nM.

Assay [11] deals with Aurora kinase B (Homo sapiens, UniProt Q96GD4). In words: Selectivity interaction (KinomeScan (DiscoverX)) EUB0001619a AURKB. Particulars: at 1 µM.
Chain of Aurora kinase B (Q96GD4 whole entry): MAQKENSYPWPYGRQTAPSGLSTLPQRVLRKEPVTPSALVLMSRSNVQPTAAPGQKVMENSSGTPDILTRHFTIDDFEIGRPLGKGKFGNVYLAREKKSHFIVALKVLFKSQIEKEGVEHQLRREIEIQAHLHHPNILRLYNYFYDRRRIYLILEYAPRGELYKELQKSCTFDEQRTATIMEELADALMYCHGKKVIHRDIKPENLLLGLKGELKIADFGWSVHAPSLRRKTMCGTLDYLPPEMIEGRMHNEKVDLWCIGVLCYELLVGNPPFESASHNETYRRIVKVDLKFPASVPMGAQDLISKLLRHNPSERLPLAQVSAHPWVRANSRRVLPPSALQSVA
For assay [12], the target named is Maternal embryonic leucine zipper kinase (Homo sapiens) (UniProt Q14680). In words: Selectivity interaction (KinomeScan (DiscoverX)) EUB0001619a MELK. Particulars: at 1 µM.
Chain of Maternal embryonic leucine zipper kinase (Homo sapiens) (Q14680 whole entry, looked up): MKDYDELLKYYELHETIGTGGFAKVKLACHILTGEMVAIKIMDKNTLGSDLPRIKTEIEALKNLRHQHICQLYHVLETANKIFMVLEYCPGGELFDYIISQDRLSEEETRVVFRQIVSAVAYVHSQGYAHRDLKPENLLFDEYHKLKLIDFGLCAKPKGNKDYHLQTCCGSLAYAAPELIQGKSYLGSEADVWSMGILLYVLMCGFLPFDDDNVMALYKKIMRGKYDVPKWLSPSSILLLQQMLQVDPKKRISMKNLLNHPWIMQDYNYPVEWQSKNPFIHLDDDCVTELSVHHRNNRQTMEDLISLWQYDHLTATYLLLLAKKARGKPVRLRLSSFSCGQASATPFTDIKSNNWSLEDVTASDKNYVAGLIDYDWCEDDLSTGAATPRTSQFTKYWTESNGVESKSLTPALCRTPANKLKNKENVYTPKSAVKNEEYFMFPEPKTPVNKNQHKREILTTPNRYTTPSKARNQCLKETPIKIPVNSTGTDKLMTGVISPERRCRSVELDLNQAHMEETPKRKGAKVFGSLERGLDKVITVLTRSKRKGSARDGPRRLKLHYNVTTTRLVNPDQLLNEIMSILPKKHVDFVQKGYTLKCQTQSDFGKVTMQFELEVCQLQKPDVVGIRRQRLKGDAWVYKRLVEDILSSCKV
Assay [13] has as its target Ribosomal protein S6 kinase alpha-3 (Homo sapiens, UniProt P51812). In words: Selectivity interaction (KinomeScan (DiscoverX)) EUB0001619a RPS6KA3. Particulars: at 1 µM.

The values below come from ChEMBL document CHEMBL5465560, “Selectivity Literature for EUbOPEN Chemogenomic Library” (2024).

Chain of Ribosomal protein S6 kinase alpha-5 (Homo sapiens) (O75582 whole entry, looked up): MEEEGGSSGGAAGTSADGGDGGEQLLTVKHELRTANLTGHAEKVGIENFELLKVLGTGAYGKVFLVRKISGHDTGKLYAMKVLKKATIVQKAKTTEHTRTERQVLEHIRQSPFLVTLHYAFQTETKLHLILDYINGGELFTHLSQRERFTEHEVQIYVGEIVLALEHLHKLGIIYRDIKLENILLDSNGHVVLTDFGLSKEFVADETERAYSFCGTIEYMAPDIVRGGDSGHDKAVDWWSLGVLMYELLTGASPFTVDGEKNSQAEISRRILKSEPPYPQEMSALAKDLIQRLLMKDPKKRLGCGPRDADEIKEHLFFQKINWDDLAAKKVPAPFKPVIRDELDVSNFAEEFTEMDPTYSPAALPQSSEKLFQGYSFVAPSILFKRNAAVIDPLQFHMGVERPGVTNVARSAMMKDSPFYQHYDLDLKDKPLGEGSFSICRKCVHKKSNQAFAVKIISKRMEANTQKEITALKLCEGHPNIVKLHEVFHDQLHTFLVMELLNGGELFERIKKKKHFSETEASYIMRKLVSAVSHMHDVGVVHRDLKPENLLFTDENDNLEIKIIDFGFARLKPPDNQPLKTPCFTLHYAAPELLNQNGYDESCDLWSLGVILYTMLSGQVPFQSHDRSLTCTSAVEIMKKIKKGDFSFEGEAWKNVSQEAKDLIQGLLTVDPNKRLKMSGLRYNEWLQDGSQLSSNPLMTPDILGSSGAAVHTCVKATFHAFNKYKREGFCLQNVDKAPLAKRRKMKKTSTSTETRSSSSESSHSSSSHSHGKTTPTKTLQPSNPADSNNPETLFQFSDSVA
Chain of 5'-AMP-activated protein kinase catalytic subunit alpha-1 (Q13131 whole entry, looked up): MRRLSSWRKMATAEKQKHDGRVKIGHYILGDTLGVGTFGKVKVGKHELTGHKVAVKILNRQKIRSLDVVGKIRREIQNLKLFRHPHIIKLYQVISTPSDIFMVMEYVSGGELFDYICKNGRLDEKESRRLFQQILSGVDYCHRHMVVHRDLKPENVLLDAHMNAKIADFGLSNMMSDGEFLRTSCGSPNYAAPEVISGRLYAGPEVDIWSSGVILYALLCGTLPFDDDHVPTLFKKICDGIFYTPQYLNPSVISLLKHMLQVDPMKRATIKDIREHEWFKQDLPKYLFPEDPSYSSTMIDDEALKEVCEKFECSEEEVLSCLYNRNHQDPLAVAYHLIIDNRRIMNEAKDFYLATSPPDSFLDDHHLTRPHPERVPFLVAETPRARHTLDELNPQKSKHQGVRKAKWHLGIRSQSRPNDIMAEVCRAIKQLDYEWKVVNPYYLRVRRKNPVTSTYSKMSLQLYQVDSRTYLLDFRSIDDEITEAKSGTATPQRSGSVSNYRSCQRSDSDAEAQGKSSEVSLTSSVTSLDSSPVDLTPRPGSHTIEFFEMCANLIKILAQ
Chain of Mitogen-activated protein kinase 6 (Homo sapiens) (Q16659 whole entry): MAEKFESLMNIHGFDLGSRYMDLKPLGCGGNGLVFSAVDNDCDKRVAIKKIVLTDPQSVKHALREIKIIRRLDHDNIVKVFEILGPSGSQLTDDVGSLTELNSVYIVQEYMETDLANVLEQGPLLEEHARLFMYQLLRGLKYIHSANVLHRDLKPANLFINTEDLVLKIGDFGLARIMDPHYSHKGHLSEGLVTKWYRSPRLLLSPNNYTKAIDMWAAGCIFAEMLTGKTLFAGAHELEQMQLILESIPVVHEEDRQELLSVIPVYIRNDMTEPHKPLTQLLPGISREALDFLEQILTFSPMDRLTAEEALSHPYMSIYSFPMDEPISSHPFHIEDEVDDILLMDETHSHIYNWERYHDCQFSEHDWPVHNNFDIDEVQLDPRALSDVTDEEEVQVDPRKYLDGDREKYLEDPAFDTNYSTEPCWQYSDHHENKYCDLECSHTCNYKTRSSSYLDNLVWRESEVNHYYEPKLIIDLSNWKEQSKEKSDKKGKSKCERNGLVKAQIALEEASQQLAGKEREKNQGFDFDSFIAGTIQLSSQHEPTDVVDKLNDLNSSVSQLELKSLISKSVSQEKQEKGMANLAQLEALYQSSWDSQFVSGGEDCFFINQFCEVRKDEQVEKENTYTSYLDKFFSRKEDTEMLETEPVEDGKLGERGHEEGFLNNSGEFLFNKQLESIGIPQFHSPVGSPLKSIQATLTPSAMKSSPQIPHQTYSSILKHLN

In [1], `Cc1ccc(-c2ccc3c(ccc4sc5c(c43)NC[C@@H](C)NC5=O)n2)cn1` came in with a % of inhibition of 10%.
In assay [2], `CCN(CC)CCCCNc1ncc2cc(-c3cc(OC)cc(OC)c3)c(NC(=O)NC(C)(C)C)nc2n1` gave a % of control of 100%.
Take `Nc1cnc(N2CCc3cc(S(=O)(=O)Nc4c(F)cc(Cl)cc4F)cc(N4CCCC4=O)c32)nc1` [TP-020n]: the % of control in assay [3] was determined as 100%; in [4], 96%.
With `COc1cc(Nc2nc(C)cc(-c3cnn4nc(OC)ccc34)n2)cc(C(F)(F)F)c1`, the % of control in [5] was 95%; in assay [6], 78%.
In [7], `CN(C)CCOc1ccc(-c2nc(-c3ccncc3)c(-c3ccc4c(c3)CC/C4=N\O)[nH]2)cc1` displayed a % of control of 100%.
Consider `Cc1cc(C)cc([C@@H]2c3cc(C)ccc3NC(=O)CN2C(=O)c2ccc(Br)s2)c1`, for which the % of inhibition in assay [8] worked out at 1%.
`O=C(NOC[C@H](O)CO)c1ccc(F)c(F)c1Nc1ccc(I)cc1F` came in with a % of control in assay [9] of 45%.
`CC[C@@H]1[C@H](F)C(=O)N[C@@H]1COc1nccc2cc(C(N)=O)c(OC)cc12` [ZIMLOVISERTIB] gave a % of inhibition in assay [10] of 9.25%.
Regarding `N#Cc1cccc(-c2c[nH]c3ncnc(N4CCOCC4)c23)c1`, the % of control amounted to 26% in assay [11], 69% in assay [12] and 46% in assay [13].
